Test results taken from publication PMC3539793 (Neuroscience letters, 2012).
Non-standard residues stand in square brackets, D forms with d. Residues, ends and D or L forms follow the SMILES beside them. *: point of attachment. X1 = OC[C@H]1O[C@@H](O[C@H]2[C@H](O)[C@@H](O)[C@H](*)O[C@@H]2CO)[C@H](O)[C@@H](O)[C@H]1O

What was measured:
[1] = assay type: in vivo, rat
[2] = test system: apomorphine-induced overshoot in movement; details: reserpine-treated akinesia rats; cited from earlier work
δ-opioid receptor = details: cited from earlier work
μ-opioid receptor = details: cited from earlier work
[3] = rhesus monkeys; i.m. injection; cited from earlier work
allodynia = details: rhesus monkeys; i.m.; cited from earlier work
thermal nociception = details: rhesus monkeys; i.m.; cited from earlier work

Q: With CC(C)C[C@H](NC(=O)[C@H](Cc1ccccc1)NC(=O)CNC(=O)[C@H](NC(=O)[C@@H](N)Cc1ccc(O)cc1)[C@H](C)O)C(=O)N[C@@H](CO[C@@H]1O[C@H](CO)[C@@H](O[C@@H]2O[C@H](CO)[C@H](O)[C@H](O)[C@H]2O)[C@H](O)[C@H]1O)C(N)=O [MMP-2200, Tyr-D-Thr-Gly-Phe-Leu-Ser(β-O-Glc)-CONH2] (H-Y[dT]GFLS(X1)-NH2; N-terminus assumed) as the compound, how does the “MMP-2200 concentration in DLS reached within 10 minutes” value ([1]; rat, systemic administration (i.p.), highlights) read?
A: nM range

Q: What about the “effect of MMP-2200 injection on endogenous leu-ENK level in DLS” value ([1]; rats, MMP-2200 10 mg/kg i.p., 80 min, repeated measures ANOVA p = 0.8, n = 5) of the same compound?
A: unchanged

Q: And the “apomorphine-induced overshoot in movement” value [2]?
A: reversed

Q: And the “affinity for δ-opioid receptor” value (δ-opioid receptor)?
A: nanomolar

Q: And the “affinity for μ-opioid receptor” value (μ-opioid receptor)?
A: nanomolar

Q: And the CNS distribution [3]?
A: very limited

Q: What about the anti-allodynic effects (allodynia) of the same compound?
A: comparable to morphine

Q: What about the “effect in tail flick model of thermal nociception” value (thermal nociception) of the same compound?
A: not very effective
